This passage reports IC50 and Activity results from ChEMBL document CHEMBL3769352, “Design, synthesis, and testing of an isoquinoline-3-carboxylic-based novel anti-tumor lead” (Bioorg Med Chem Lett, 2015).

By IC50 is commonly meant the midpoint of a concentration-inhibition curve. A low value points to greater potency in that assay.

One data set deals with HeLa. Briefly: Cytotoxicity against human HeLa cells after 48 hrs by MTT assay. The format is functional, cell-based.
The next data set relates to MCF7. Briefly: Cytotoxicity against human MCF7 cells after 48 hrs by MTT assay. Format: functional, cell-based. The note with it: MCF7, 48 h.
A further data set concerns HepG2. Briefly: Cytotoxicity against human HepG2 cells after 48 hrs by MTT assay. The format is functional, cell-based. The note with it: HepG2, 48 h. A general note: Formazan colour is commonly taken as a measure of viable cells.
The next data set concerns A2780. As to the kind of experiment: Cytotoxicity against human A2780 cells after 48 hrs by MTT assay. Format: functional, cell-based. The note with it: A2780, 48 h.
Another data set deals with KB. As to the kind of experiment: Cytotoxicity against human KB cells after 48 hrs by MTT assay. The format is functional, cell-based.
The nature of data set [1]: Cytotoxicity against human Bel7402 cells after 48 hrs by MTT assay. The format is functional, cell-based. As to conditions: Bel-7402, 48 h.
Data set [2] has as its system CCRF S-180. Briefly: Antitumor activity against mouse S180 cells allografted in Swiss mouse assessed as tumour weight at 2 umol/kg, sc administered every day for 12 days measured on fourteenth day (reference value: 1.662 +/- 0.355 g). Format: functional.
Data set [3] has as its system Mus musculus. Briefly: Toxicity in Swiss mouse allografted with mouse S180 cells assessed as effect on brain to body weight ratio at 8 umol/kg, sc administered every day for 12 days measured on fourteenth day. Format: organism-based, CCRF S-180. As to conditions: in vivo, 288 h.
Data set [4] deals with Mus musculus. Briefly: Toxicity in Swiss mouse allografted with mouse S180 cells assessed as effect on heart to body weight ratio at 8 umol/kg, sc administered every day for 12 days measured on fourteenth day. Format: organism-based, CCRF S-180. The note with it: in vivo, 288 h.
In data set [5] the test system is Mus musculus. Briefly: Toxicity in Swiss mouse allografted with mouse S180 cells assessed as effect on liver to body weight ratio at 8 umol/kg, sc administered every day for 12 days measured on fourteenth day. The format is organism-based, CCRF S-180. As to conditions: in vivo, 288 h.
Data set [6] deals with Mus musculus. As to the kind of experiment: Toxicity in Swiss mouse allografted with mouse S180 cells assessed as effect on spleen to body weight ratio at 8 umol/kg, sc administered every day for 12 days measured on fourteenth day. Format: organism-based, CCRF S-180. The note with it: in vivo, 288 h.
Data set [7] has as its system Mus musculus. As to the kind of experiment: Toxicity in Swiss mouse allografted with mouse S180 cells assessed as effect on kidney to body weight ratio at 8 umol/kg, sc administered every day for 12 days measured on fourteenth day. As to conditions: in vivo, 288 h. Format: organism-based, CCRF S-180.
Data set [8] relates to Mus musculus. As to the kind of experiment: Toxicity in Swiss mouse allografted with mouse S180 cells assessed as spleen weight index at 8 umol/kg, sc administered every day for 12 days measured on fourteenth day. Format: organism-based, CCRF S-180. As to conditions: in vivo, 288 h.
Data set [9] has as its system Mus musculus. As to the kind of experiment: Toxicity in Swiss mouse allografted with mouse S180 cells assessed as effect on body weight at 8 umol/kg, sc administered every day for 12 days measured every day during compound administration. The format is organism-based, CCRF S-180. As to conditions: in vivo, 288 h.
Data set [10] concerns CCRF S-180. Briefly: Antitumor activity against mouse S180 cells allografted in Swiss mouse assessed as tumour weight at 8 umol/kg, sc administered every day for 12 days measured on fourteenth day (reference value: 1.662 +/- 0.355 g). Format: functional.
The test system of data set [11] is Mus musculus. Briefly: Toxicity in Swiss mouse allografted with mouse S180 cells assessed as effect on brain to body weight ratio at 2 umol/kg, sc administered every day for 12 days measured on fourteenth day. The format is organism-based, CCRF S-180. The note with it: in vivo, 288 h.
Data set [12] deals with Mus musculus. Briefly: Toxicity in Swiss mouse allografted with mouse S180 cells assessed as effect on heart to body weight ratio at 2 umol/kg, sc administered every day for 12 days measured on fourteenth day. Format: organism-based, CCRF S-180. The note with it: in vivo, 288 h.
Data set [13] concerns Mus musculus. As to the kind of experiment: Toxicity in Swiss mouse allografted with mouse S180 cells assessed as effect on liver to body weight ratio at 2 umol/kg, sc administered every day for 12 days measured on fourteenth day. The format is organism-based, CCRF S-180. As to conditions: in vivo, 288 h.
The test system of data set [14] is Mus musculus. As to the kind of experiment: Toxicity in Swiss mouse allografted with mouse S180 cells assessed as effect on spleen to body weight ratio at 2 umol/kg, sc administered every day for 12 days measured on fourteenth day. Format: organism-based, CCRF S-180. As to conditions: in vivo, 288 h.
Data set [15] deals with Mus musculus. Briefly: Toxicity in Swiss mouse allografted with mouse S180 cells assessed as effect on kidney to body weight ratio at 2 umol/kg, sc administered every day for 12 days measured on fourteenth day. Format: organism-based, CCRF S-180. The note with it: in vivo, 288 h.
Data set [16] concerns Mus musculus. As to the kind of experiment: Toxicity in Swiss mouse allografted with mouse S180 cells assessed as spleen weight index at 2 umol/kg, sc administered every day for 12 days measured on fourteenth day. Format: organism-based, CCRF S-180. As to conditions: in vivo, 288 h.
Data set [17] has as its system Mus musculus. Briefly: Toxicity in Swiss mouse allografted with mouse S180 cells assessed as body weight at 2 umol/kg, sc administered every day for 12 days measured every day during compound administration. Format: organism-based, CCRF S-180. As to conditions: in vivo, 288 h.
Data set [18] has as its system Mus musculus. As to the kind of experiment: Toxicity in Swiss mouse allografted with mouse S180 cells assessed as reduction in liver to body weight ratio at 2 umol/kg, sc administered every day for 12 days measured on fourteenth day. As to conditions: in vivo, 288 h. The format is organism-based, CCRF S-180.
Data set [19] relates to Mus musculus. Briefly: Toxicity in Swiss mouse allografted with mouse S180 cells assessed as reduction in spleen weight index at 2 umol/kg, sc administered every day for 12 days measured on fourteenth day. Format: organism-based, CCRF S-180. As to conditions: in vivo, 288 h.

Take `O=C(NCCN(CCNC(=O)c1cc2ccccc2cn1)CCNC(=O)c1cc2ccccc2cn1)c1ccccc1`: the IC50 in the data set on HeLa is 33.5 µM; with MCF7, 25 µM; with HepG2 it was 38.4 µM; with A2780, 33.6 µM; with KB, 75.2 µM; in data set [1], 87.4 µM. Also, the Activity in the data set on CCRF S-180 [2] is 0.952 g; in the data set on Mus musculus [3], “Non-toxic”; in the data set on Mus musculus [4] it was “Non-toxic”; with Mus musculus [5], “Non-toxic”; in the data set with Mus musculus [6], “Non-toxic”; in the data set with Mus musculus [7], “Non-toxic”. Also, the Activity entry is recorded as “Non-toxic” in the data set with Mus musculus [8] and 33 g in the data set with Mus musculus [9].

For `O=C(O)c1cc2ccccc2cn1`, the IC50 (with HeLa; with MCF7; in the data set with HepG2; with A2780; in the data set on KB; in data set [1]) was greater than 100 µM in each case. In addition, the Activity with CCRF S-180 [10] was 1.104 g; with Mus musculus [11], “Non-toxic”; in the data set with Mus musculus [12] it was “Non-toxic”; in the data set on Mus musculus [13] it was “Non-toxic”; in the data set on Mus musculus [14], “Non-toxic”; in the data set with Mus musculus [15], “Non-toxic”. Besides, the results for the Activity entry with Mus musculus [16] and with Mus musculus [17] were “Non-toxic” and 33 g, respectively.

With `COc1cccc2c1C(=O)c1c(O)c3c(c(O)c1C2=O)C[C@@](O)(C(=O)CO)C[C@@H]3O[C@H]1C[C@H](N)[C@H](O)[C@H](C)O1` [DOXORUBICIN], the IC50 is 0.6 µM with HeLa; 0.16 µM in the data set with MCF7; 0.58 µM in the data set with HepG2; 0.27 µM with A2780; 0.13 µM in the data set with KB; 1.36 µM in data set [1]. In addition, the Activity in the data set with CCRF S-180 [2] is 0.401 g; with Mus musculus [18] it was “Toxic”; in the data set on Mus musculus [19] it was “Toxic”; in the data set with Mus musculus [17] it was 24 g.
